The results in this text go back to ChEMBL document CHEMBL1201862, “PubChem BioAssay data set” (2004).

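Compound exposure: 48 hours, 5 concentrations, 96-well plates. The concentration for 50% growth inhibition is given as GI50.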 Calls of active or inactive are those of the source. Cut-off read from the data, not from the text of the source: active = GI50 up to about 1.1 µM and inactive = higher.

Some test systems named below: ACHN; CAKI-1; COLO 205; DU-145; EKVX; HCT-15; LOX IMVI; M14; MDA-MB-231; NCI-H226; NCI-H23; NCI-H460; NCI/ADR-RES; RPMI-8226; RXF 393; SK-MEL-28; SN12C; SNB-75; SW-620; T47D.
Assay in all cases: NCI-60 cell line screen, 48 h

For the molecule `O=C(O)c1nnsc1-c1csnn1`, the GI50 is > 100 µM (inactive) with ACHN; > 100 µM (inactive) in the experiment with CAKI-1; > 100 µM (inactive) with COLO 205; > 100 µM (inactive) with DU-145; > 100 µM (inactive) in the experiment with EKVX; over 100 µM in the experiment on HCT-15. Moreover, the GI50 with LOX IMVI, with M14, with MDA-MB-231, in the experiment on NCI-H226, in the experiment with NCI-H23 and with NCI-H460 was > 100 µM (inactive) each time. In addition, the GI50 with NCI/ADR-RES, with RPMI-8226, in the experiment with RXF 393, with SK-MEL-28, in the experiment on SN12C and in the experiment with SNB-75 was > 100 µM (inactive) in each case. Further, the GI50 in the experiment on SW-620 and in the experiment with T47D was > 100 µM (inactive) in each case.
Turning to `O=C1C(Cl)=C(N[C@@H](Cc2ccccc2)C(=O)OCc2ccccc2)C(=O)c2c(O)ccc(O)c21`, the GI50 was 4.05 µM (inactive) in the experiment on ACHN; > 10 µM (inactive) in the experiment with CAKI-1; 2.28 µM (inactive) in the experiment with COLO 205; 4.45 µM (inactive) in the experiment with DU-145; 7.18 µM (inactive) in the experiment with EKVX; 1.19 µM in the experiment on HCT-15. For the same molecule, the GI50 in the experiment on LOX IMVI is 2.99 µM (inactive); with M14 it was 3.8 µM (inactive); with MDA-MB-231, 2.55 µM (inactive); in the experiment with NCI-H226 it was 5.3 µM (inactive); with NCI-H23, 4.42 µM (inactive); in the experiment with NCI-H460 it was 4.59 µM (inactive). In addition, the GI50 in the experiment on NCI/ADR-RES is 1.88 µM (inactive); in the experiment on RPMI-8226, > 10 µM (inactive); with RXF 393, 4.92 µM (inactive); with SK-MEL-28 it was 6.34 µM (inactive); with SN12C it was 3.93 µM (inactive); with SNB-75 it was 4.73 µM (inactive). For the same molecule, the GI50 was 5.65 µM (inactive) with SW-620 and > 10 µM (inactive) in the experiment on T47D.
As to `C[C@H]1C(=O)C2=C[C@H]1CCC(=O)[C@]1(C)CCCC(C)(C)[C@H]1C[C@H]2O`, the GI50 was 17.3 µM (inactive) with ACHN; 22.4 µM (inactive) in the experiment on CAKI-1; 14.3 µM (inactive) with COLO 205; 28.2 µM (inactive) in the experiment with DU-145; 13.1 µM (inactive) with EKVX; 14.3 µM with HCT-15. Besides, the GI50 with LOX IMVI was 17.3 µM (inactive); in the experiment with M14 it was 13.2 µM (inactive); in the experiment with MDA-MB-231 it was 5.38 µM (inactive); in the experiment with NCI-H226 it was 19.7 µM (inactive); in the experiment with NCI-H23, 21.8 µM (inactive); in the experiment with NCI-H460 it was 21.9 µM (inactive). Besides, the GI50 was 21.5 µM (inactive) with NCI/ADR-RES; 12.5 µM (inactive) in the experiment on RPMI-8226; 11.5 µM (inactive) with RXF 393; 40.1 µM (inactive) in the experiment with SK-MEL-28; 26.9 µM (inactive) in the experiment with SN12C; 16.7 µM (inactive) with SNB-75. The GI50 with SW-620 was 14.9 µM (inactive); with T47D it was 17.6 µM (inactive).
For `COC(=O)c1sc2c(=O)c(C(=O)OC)c(C(=O)OC)sc2c(=O)c1C(=O)OC`, the GI50 was > 100 µM (inactive) with ACHN; > 100 µM (inactive) in the experiment on CAKI-1; > 100 µM (inactive) with COLO 205; > 100 µM (inactive) in the experiment with DU-145; > 100 µM (inactive) with EKVX; over 100 µM in the experiment on HCT-15. Moreover, the GI50 with LOX IMVI was 73.3 µM (inactive); with M14 it was > 100 µM (inactive); in the experiment on MDA-MB-231 it was > 100 µM (inactive); in the experiment on NCI-H226, > 100 µM (inactive); in the experiment with NCI-H23 it was > 100 µM (inactive); with NCI-H460, > 100 µM (inactive). Besides, the GI50 in the experiment on NCI/ADR-RES, in the experiment on RPMI-8226, in the experiment on RXF 393, with SK-MEL-28, in the experiment on SN12C and in the experiment on SNB-75 was > 100 µM (inactive) each time. The GI50 with SW-620 and in the experiment with T47D was > 100 µM (inactive) each time.
In the case of `Cc1c(C)n(-c2ccccc2)c2nc([S+](C)[O-])nc([S+](C)[O-])c12` (stereo not given), the GI50 with ACHN was 5.83 µM (inactive); in the experiment on CAKI-1, 1.34 µM (inactive); in the experiment with COLO 205, 1.75 µM (inactive); in the experiment with DU-145, 14.4 µM (inactive); with EKVX, 6.92 µM (inactive); in the experiment with HCT-15, 5 µM. Besides, the GI50 in the experiment on LOX IMVI is 1.81 µM (inactive); in the experiment on M14 it was 2.21 µM (inactive); in the experiment on MDA-MB-231 it was 4.74 µM (inactive); in the experiment on NCI-H226, 17.9 µM (inactive); with NCI-H23, 13.9 µM (inactive); in the experiment with NCI-H460, 18.8 µM (inactive). Moreover, the GI50 with NCI/ADR-RES was 22.9 µM (inactive); in the experiment with RPMI-8226 it was 1.66 µM (inactive); with RXF 393 it was 2.92 µM (inactive); with SK-MEL-28 it was 4.15 µM (inactive); in the experiment on SN12C it was 8.28 µM (inactive); in the experiment on SNB-75 it was 9.1 µM (inactive). Moreover, the values for the GI50 with SW-620 and with T47D were 1.79 µM (inactive) and 2.44 µM (inactive), respectively.
For the molecule `N[C@@H](Cc1ccccc1)C(=O)N1CCC[C@@H]1P(=O)(Oc1ccccc1)Oc1ccccc1`, the GI50 with ACHN was > 100 µM (inactive); with CAKI-1 it was > 100 µM (inactive); in the experiment with COLO 205, > 100 µM (inactive); in the experiment with DU-145 it was > 100 µM (inactive); with EKVX it was > 100 µM (inactive); in the experiment with HCT-15, over 100 µM. Further, the GI50 in the experiment on LOX IMVI, in the experiment on M14, in the experiment on MDA-MB-231, with NCI-H226, with NCI-H23 and in the experiment on NCI-H460 was > 100 µM (inactive) each time. The GI50 with NCI/ADR-RES was > 100 µM (inactive); in the experiment with RPMI-8226, 96.4 µM (inactive); with RXF 393, > 100 µM (inactive); in the experiment with SK-MEL-28, > 100 µM (inactive); in the experiment with SN12C it was > 100 µM (inactive); in the experiment on SNB-75 it was > 100 µM (inactive). Also, the GI50 in the experiment with SW-620 and in the experiment with T47D was > 100 µM (inactive) in each case.
Regarding `CC1(C)C(O)c2ccccc2OC1N1CCN(C2Oc3ccccc3C(O)C2(C)C)CC1` (stereo not given), the GI50 was > 100 µM (inactive) in the experiment with ACHN; > 100 µM (inactive) in the experiment on CAKI-1; > 100 µM (inactive) with COLO 205; > 100 µM (inactive) in the experiment with DU-145; > 100 µM (inactive) in the experiment on EKVX; over 100 µM in the experiment with HCT-15. Also, the GI50 with LOX IMVI, with M14, in the experiment with MDA-MB-231, in the experiment with NCI-H226, with NCI-H23 and in the experiment with NCI-H460 was > 100 µM (inactive) each time. Also, the GI50 in the experiment with NCI/ADR-RES, in the experiment on RPMI-8226, in the experiment with RXF 393, with SK-MEL-28, with SN12C and in the experiment on SNB-75 was > 100 µM (inactive) in each case. Moreover, the GI50 in the experiment with SW-620 and in the experiment on T47D was > 100 µM (inactive) each time.
Take `CCOC(=O)c1sc2ncnc(N)c2c1C`: the GI50 was 65.8 µM (inactive) with ACHN; 35.9 µM (inactive) in the experiment with CAKI-1; 19.6 µM (inactive) with COLO 205; 68.7 µM (inactive) in the experiment on DU-145; 25.9 µM (inactive) with EKVX; 73.6 µM in the experiment on HCT-15. The GI50 in the experiment with LOX IMVI was 43.8 µM (inactive); in the experiment on M14 it was 65 µM (inactive); in the experiment with MDA-MB-231, > 100 µM (inactive); with NCI-H226 it was 75.5 µM (inactive); in the experiment on NCI-H23, 70.3 µM (inactive); in the experiment on NCI-H460 it was > 100 µM (inactive). Also, the GI50 with NCI/ADR-RES was > 100 µM (inactive); in the experiment on RPMI-8226, 95.5 µM (inactive); with RXF 393, 22.8 µM (inactive); in the experiment on SK-MEL-28, 45.3 µM (inactive); in the experiment on SN12C it was 21.4 µM (inactive); in the experiment on SNB-75 it was 35.1 µM (inactive). Also, the figures for the GI50 with SW-620 and in the experiment on T47D were > 100 µM (inactive) and 24.2 µM (inactive), respectively.
In the case of `COc1ccc(-c2cc(-c3ccc(Nc4ccnc5cc(C(F)(F)F)ccc45)cc3)[nH]c(=O)c2C#N)cc1`, the GI50 was > 42.1 µM (inactive) with ACHN; > 100 µM (inactive) with CAKI-1; > 39.4 µM (inactive) in the experiment on COLO 205; > 84.7 µM (inactive) in the experiment on DU-145; 98.9 µM (inactive) in the experiment on EKVX; over 100 µM in the experiment with HCT-15. Further, the GI50 in the experiment on LOX IMVI was 16.6 µM (inactive); in the experiment on M14 it was 27.2 µM (inactive); with MDA-MB-231 it was 24.9 µM (inactive); with NCI-H226, > 29.3 µM (inactive); in the experiment on NCI-H23, > 38.4 µM (inactive); with NCI-H460 it was > 100 µM (inactive). Further, the GI50 with NCI/ADR-RES was > 100 µM (inactive); with RPMI-8226 it was > 100 µM (inactive); with RXF 393 it was > 32.7 µM (inactive); with SK-MEL-28, > 72.1 µM (inactive); in the experiment on SN12C, > 100 µM (inactive); in the experiment on SNB-75, 8.24 µM (inactive). The GI50 with SW-620 was > 100 µM (inactive); in the experiment with T47D, 45.7 µM (inactive).
Take `N#C[BH2-][n+]1ccc(C(=O)NNCc2cccc(C(F)(F)F)c2)cc1`: the GI50 is 33.7 µM (inactive) in the experiment with ACHN; 37.9 µM (inactive) in the experiment with CAKI-1; 14.1 µM (inactive) in the experiment on COLO 205; 33.1 µM (inactive) in the experiment on DU-145; 27.3 µM (inactive) in the experiment with EKVX; 21.3 µM in the experiment on HCT-15. Besides, the GI50 is 4.26 µM (inactive) in the experiment on LOX IMVI; 8.75 µM (inactive) with M14; 10.4 µM (inactive) in the experiment with MDA-MB-231; 3.27 µM (inactive) in the experiment with NCI-H226; 12.2 µM (inactive) in the experiment on NCI-H23; 20 µM (inactive) in the experiment on NCI-H460. Besides, the GI50 was 11.6 µM (inactive) with NCI/ADR-RES; 21.4 µM (inactive) in the experiment on RPMI-8226; 8.22 µM (inactive) in the experiment with RXF 393; 5.5 µM (inactive) with SK-MEL-28; 28.8 µM (inactive) in the experiment on SN12C; 3.85 µM (inactive) in the experiment with SNB-75. The GI50 was 25.5 µM (inactive) with SW-620 and 20 µM (inactive) in the experiment on T47D.
